# From PubChem BioAssay (NCI)
#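 Growth conditions: 96-well plates. Treatment: test compound, 48 hours, 5 concentrations. Analysis: linear interpolation between bracketing concentrations; unreached endpoints set to highest concentration. Abbreviation: GI50, concentration required for 50% inhibition of growth. TGI marks complete inhibition of growth.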
# Assays:
# Test in all cases: DTP human tumour cell line panel, 48 h
# OVCAR-4 ovarian = system: OVCAR-4 ovarian
# SK-MEL-28 melanoma = system: SK-MEL-28 melanoma
# SN12C renal = system: SN12C renal
# HCT-116 colon = system: HCT-116 colon
# OVCAR-8 ovarian = system: OVCAR-8 ovarian
# TK-10 renal = system: TK-10 renal
# UO-31 renal = system: UO-31 renal
# T-47D breast = system: T-47D breast
# K-562 leukemia = system: K-562 leukemia
# SNB-19 CNS = system: SNB-19 CNS
# LOX IMVI melanoma = system: LOX IMVI melanoma
# MALME-3M melanoma = system: MALME-3M melanoma
# A498 renal = system: A498 renal
# MDA-MB-231 breast = system: MDA-MB-231 breast
# PC-3 prostate = system: PC-3 prostate
# SW-620 colon = system: SW-620 colon
# SF-268 CNS = system: SF-268 CNS
# NCI/ADR-RES ovarian = system: NCI/ADR-RES ovarian
# SR leukemia = system: SR leukemia
# OVCAR-3 ovarian = system: OVCAR-3 ovarian
# NCI-H460 lung = system: NCI-H460 lung
# MOLT-4 leukemia = system: MOLT-4 leukemia
# KM12 colon = system: KM12 colon
# CCRF-CEM leukemia = system: CCRF-CEM leukemia
# COLO 205 colon = system: COLO 205 colon
# A549 NSCLC = system: A549 NSCLC
smiles,measurement,setting,value
COc1cc(/C=C\c2cc(OC)c(OC)c(OC)c2)cc(N/C=C\C(=O)c2cc(OC)c(OC)c(OC)c2)c1OC,GI50,OVCAR-4 ovarian,2.91 µM
same,TGI,OVCAR-4 ovarian,> 100 µM
same,GI50,SK-MEL-28 melanoma,4.28 µM
same,TGI,SK-MEL-28 melanoma,> 100 µM
same,GI50,SN12C renal,4.03 µM
same,TGI,SN12C renal,> 100 µM
same,GI50,HCT-116 colon,2.78 µM
same,TGI,HCT-116 colon,> 100 µM
same,GI50,OVCAR-8 ovarian,4.7 µM
same,TGI,OVCAR-8 ovarian,> 100 µM
same,GI50,TK-10 renal,5.93 µM
same,TGI,TK-10 renal,> 100 µM
same,GI50,UO-31 renal,2.63 µM
same,TGI,UO-31 renal,> 100 µM
same,GI50,T-47D breast,1.68 µM
same,TGI,T-47D breast,6.83 µM
same,GI50,K-562 leukemia,3.38 µM
same,TGI,K-562 leukemia,> 100 µM
same,GI50,SNB-19 CNS,4.49 µM
same,TGI,SNB-19 CNS,> 100 µM
same,GI50,LOX IMVI melanoma,3.54 µM
same,TGI,LOX IMVI melanoma,> 100 µM
same,GI50,MALME-3M melanoma,2.91 µM
same,TGI,MALME-3M melanoma,> 100 µM
same,GI50,A498 renal,2.4 µM
same,TGI,A498 renal,7.89 µM
same,GI50,MDA-MB-231 breast,4.01 µM
same,TGI,MDA-MB-231 breast,> 100 µM
same,GI50,PC-3 prostate,2.89 µM
same,TGI,PC-3 prostate,> 100 µM
same,GI50,SW-620 colon,4.12 µM
same,TGI,SW-620 colon,> 100 µM
same,GI50,SF-268 CNS,6.04 µM
same,TGI,SF-268 CNS,> 100 µM
same,GI50,NCI/ADR-RES ovarian,3.12 µM
same,TGI,NCI/ADR-RES ovarian,> 100 µM
same,GI50,SR leukemia,2.03 µM
same,TGI,SR leukemia,> 100 µM
same,GI50,OVCAR-3 ovarian,2.31 µM
same,TGI,OVCAR-3 ovarian,5.82 µM
same,GI50,NCI-H460 lung,3.93 µM
same,TGI,NCI-H460 lung,> 100 µM
same,GI50,MOLT-4 leukemia,4.62 µM
same,TGI,MOLT-4 leukemia,> 100 µM
same,GI50,KM12 colon,3.21 µM
same,TGI,KM12 colon,> 100 µM
same,GI50,CCRF-CEM leukemia,2.93 µM
same,TGI,CCRF-CEM leukemia,> 100 µM
same,GI50,COLO 205 colon,2.31 µM
same,TGI,COLO 205 colon,5.7 µM
same,GI50,A549 NSCLC,5.14 µM
same,TGI,A549 NSCLC,> 100 µM
